# Laboratory results published in PubChem BioAssay AID1552 (Sanford-Burnham Center for Chemical Genomics, 2009).
# The source made the active and inactive calls. No rule for the calls is given here.
# Biological target: Ubiquitin-conjugating enzyme E2 N (Homo sapiens) (UniProt P61088)
# Experiment: NMR detection of UBE2N ligand binding – biophysical, purified protein (AID 1552)
# Settings: NMR binding to purified UBE2N
# Ubiquitin-conjugating enzyme E2 N (Homo sapiens), sequence (P61088 whole entry, looked up): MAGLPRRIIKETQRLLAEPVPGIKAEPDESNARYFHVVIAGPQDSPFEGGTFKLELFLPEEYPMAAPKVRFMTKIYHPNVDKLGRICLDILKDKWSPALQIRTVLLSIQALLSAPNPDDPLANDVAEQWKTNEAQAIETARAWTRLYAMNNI
row,SMILES,Kd
1,CC(=O)Nc1ccc(S(=O)(=O)NC2=NCCS2)cc1,> 4 mM (inactive)
2,O=S1(=O)C=C(Nc2ccccc2)CC1,> 4 mM (inactive)
3,O=C(O)CN1CCN(C2CCCC2)CC1,> 4 mM (inactive)
4,Cc1nc2ccccc2c(=O)n1CCCn1ccnc1,> 4 mM (inactive)
5,Cc1ccc(SCc2nc(-c3cccnc3)no2)cc1,> 4 mM (inactive)
6,O=C(NCCCSc1ncccn1)Nc1ncccn1,> 4 mM (inactive)
7,CC12CCCC(O)(C1)C1CC(C)(C)C1CC2 (configuration not stated),> 4 mM (inactive)
8,Nc1ccc2[nH]ccc2c1,> 4 mM (inactive)
9,OCC(O)C(O)C(O)CO (configuration not stated),> 4 mM (inactive)
10,CCc1ccc(/C=N/n2cnnc2)cc1,> 4 mM (inactive)
11,COc1ccccc1-c1c(C)nn2c(C)c(C(C)=O)cnc12,> 4 mM (inactive)
12,O=C(NCc1ccco1)c1ccc(=O)[nH]c1,> 4 mM (inactive)
13,CC(C)NC(=O)Cc1c(O)c2ccccc2[nH]c1=O,> 4 mM (inactive)
14,C=C1CCC(=O)C(C)CCC2C1CC2(C)C (configuration not stated),> 4 mM (inactive)
15,COc1ccc(/C=C2/C(=O)N=C(N)N2C)cc1OC,> 4 mM (inactive)
16,O=S1(=O)CCC(NC(=S)N2CCCCC2)C1 (configuration not stated),> 4 mM (inactive)
17,O=C(O)c1ccc2snnc2c1,> 4 mM (inactive)
18,COc1ccc2nc(N)sc2c1,> 4 mM (inactive)
19,O=S1(=O)C=CC(Nc2ccccc2)C1 (configuration not stated),> 4 mM (inactive)
20,O=C(Nc1nncs1)Oc1ccccc1,> 4 mM (inactive)
21,Cc1cc(C(=O)NCc2cccs2)c(C)o1,> 4 mM (inactive)
22,COc1cccc(-c2csc(NC(C)=O)n2)c1,> 4 mM (inactive)
23,CCOC(=O)CC1Sc2ccccc2NC1=O (configuration not stated),> 4 mM (inactive)
24,C[C@@H]1O[C@@H](O[C@H]2[C@@H](Oc3cc(O)c4c(c3)O[C@H](c3ccc(O)cc3)CC4=O)O[C@H](CO)[C@@H](O)[C@@H]2O)[C@H](O)[C@H](O)[C@H]1O,> 4 mM (inactive)

row,SMILES,Kd
1,Cc1nc2ccc(NC(=O)N3CCOCC3)cc2s1,> 4 mM (inactive)
2,O=C1Nc2ccccc2C1C1(O)C(=O)Nc2ccc(F)cc21 (configuration not stated),> 4 mM (inactive)
3,CCC1(CC)C(=O)NC(=O)N=C1N,> 4 mM (inactive)
4,COc1ccc(-c2noc(-c3ccco3)n2)cc1OC,> 4 mM (inactive)
5,c1ccc(-c2noc(-c3ccco3)n2)nc1,> 4 mM (inactive)
6,O=C1NC(=O)C(=Cc2ccccc2)C(=O)N1,> 4 mM (inactive)
7,CN1CCN(c2ccc(C(=O)O)cc2)CC1,> 4 mM (inactive)
8,Cn1ncc(C(=O)O)c1-c1ccccc1,> 4 mM (inactive)
9,c1ccc(Cc2nnc(-c3ccccc3)o2)cc1,> 4 mM (inactive)
10,COCc1nc(-c2cc(Br)ccc2OC)no1,> 4 mM (inactive)
11,O=C(Nc1ccon1)c1ccc2c(c1)OCO2,> 4 mM (inactive)
12,Cc1sc2nc(-c3ccco3)oc(=O)c2c1C,> 4 mM (inactive)
13,CC(C)(O)P(C)(=O)c1ccccc1 (configuration not stated),> 4 mM (inactive)
14,CN1CCN(C2CCSC2)CC1 (configuration not stated),> 4 mM (inactive)
15,CCn1nnc(NC(=O)c2cc3ccccc3o2)n1,> 4 mM (inactive)
16,[O-][n+]1cc(O)c(CN2CCOCC2)c2ccccc21,> 4 mM (inactive)
17,O=S1(=O)NC(=NCc2ccco2)c2ccccc21,> 4 mM (inactive)
18,OCc1ccc(CN2CCOCC2)cc1,> 4 mM (inactive)
19,Nc1cc(=O)[nH]c(=S)n1-c1ccc(F)cc1,> 4 mM (inactive)
20,CCSc1nc(N)c(NC(=O)c2ccco2)c(=O)[nH]1,> 4 mM (inactive)
21,Cc1nnc(-n2cnc3ccccc32)c2ccccc12,> 4 mM (inactive)
22,O=C(O)c1cn(-c2ccccc2)nc1-c1ccncc1,> 4 mM (inactive)
23,CSc1cccc(NC(=O)c2c(Cl)cnn2C)c1,> 4 mM (inactive)
24,Nc1ccccc1OC(F)(F)F,> 4 mM (inactive)

row,SMILES,Kd
1,Cc1cc(=O)n2nc(-c3ccccc3)sc2n1,> 4 mM (inactive)
2,O=c1[nH]c(NCCO)nnc1Cc1ccccc1,> 4 mM (inactive)
3,Cc1ccc(C(=O)CS(C)(=O)=O)cc1,> 4 mM (inactive)
4,O=C1CC(c2c[nH]c3ccccc23)C(=O)N1 (configuration not stated),> 4 mM (inactive)
5,OCC1CCCCCN1 (configuration not stated),> 4 mM (inactive)
6,C=C(C)C1CC=C(CO)CC1 (configuration not stated),> 4 mM (inactive)
7,O=C(Nc1ccc2c(c1)OCO2)c1c(F)cccc1F,> 4 mM (inactive)
8,Cc1cc(=O)cc(C)n1NC(N)=S,> 4 mM (inactive)
9,C[C@]12CCC(=O)C=C1CCC1C2C(=O)C[C@@]2(C)C1CC[C@]2(O)C(=O)CO (some centres not stated),> 4 mM (inactive)
10,CP(C)(=O)c1cccc(C(=O)O)c1,> 4 mM (inactive)
11,O=S(=O)(Nc1ccc2c(c1)OCCO2)c1cccs1,> 4 mM (inactive)
12,Cc1nc(-c2ccccc2)sc1CN,> 4 mM (inactive)
13,c1ccc2c(c1)[nH]c1cnccc12,> 4 mM (inactive)
14,Cc1nnc(SCC(=O)N2CCc3ccccc32)s1,> 4 mM (inactive)
15,NC(N)=NOCC[C@H](N)C(=O)O,> 4 mM (inactive)
16,Cc1nc2ccccc2c(=O)n1CCCO,> 4 mM (inactive)
17,Oc1ccc([C@H]2Oc3cc(O)cc(O)c3C[C@H]2O)cc1,> 4 mM (inactive)
18,CC(C)NC(=O)c1cc(-n2cnnc2)ccc1Cl,> 4 mM (inactive)
19,NC(=O)CSc1nc2ccccc2[nH]1,> 4 mM (inactive)
20,O=C(O)c1cnc2n(c1=O)CCS2,> 4 mM (inactive)
21,CCC(C)C(=O)O[C@H]1[C@H](O)C2C(CN3CC(C)CCC3[C@@]2(C)O)C2C[C@]34O[C@]5(O)C(OC(=O)C(C)(O)CC)CC[C@@]3(C)C5C(OC(C)=O)[C@@H](OC(C)=O)C4[C@@]21O (some centres not stated),> 4 mM (inactive)
22,Cc1ccc(O)c(NC(=O)c2ccco2)c1,> 4 mM (inactive)
23,CNC(=O)C(=O)Nc1cccc(Cl)c1,> 4 mM (inactive)
24,Cc1nnc(NCCO)[nH]c1=O,> 4 mM (inactive)
